# Laboratory results reported in patent US11066447B2, “Aureobasidium derivatives and methods of synthesis” (AureoGen Biosciences, Inc., priority 2016, dated 2021).
# Like-named read-outs stand apart in the source and are kept apart here. Numbered stars: 1 amine (or outer) side, 2 acyl side, 3 side chain; on linkers, the order of the positions; unused ones are H or OH. Square brackets hold non-standard residues; d marks the D form. Peptide text beside a SMILES is read from it. X1 = CC(C)N1CCN(c2ccc(-c3cccc(C[C@@H](C(=O)[*:2])N(C)[*:1])c3)cc2)CC1; Hmp(2R,3S) = CC[C@H](C)[C@@H](O)C(=O)O; NMeVal(β-OH) = CN[C@H](C(=O)O)C(C)(C)O; NMeV = CN[C@H](C(=O)O)C(C)C
# Assays:
# [1] = system: C. albicans MMX 2000 ATCC 10231; assay: MIC assay (CLSI microdilution); type: cell-based; conditions: Candida albicans, ATCC10231, RPMI plus 0.002% Tween-80; read-out: MIC
# [2] = system: C. neoformans MMX 0634 ATCC 90112; assay: MIC assay (CLSI microdilution); type: cell-based
# [3] = system: A. fumigatus MMX 5280 ATCC MYA-3626; assay: MIC/MEC assay (CLSI microdilution); type: cell-based, Aspergillus fumigatus
# Procedure, shortened: (§1)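 CLSI microdilution; RPMI-1640 + 0.002% Tween-80 (MMX 5280 additionally without Tween). Two-fold dilution series, compounds from EtOH stocks, amphotericin B from DMSO, tested 0.06-64 μg/mL. Inoculum ~0.2-2.5×10^4 CFU/mL final.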
# [4] = system: C. albicans MMX 2000 ATCC 10231; assay: MIC assay (CLSI microdilution); type: cell-based; conditions: Candida albicans, ATCC10231, Without Tween-80; read-out: MIC
# [5] = system: C. parapsilosis MMX 2323 ATCC 22019; conditions: Without Tween-80; quality control range; cited from earlier work
# [6] = system: A. fumigatus MMX 5280 ATCC MYA-3626; conditions: Without Tween-80, quality control range, cited from earlier work
# [7] = system: C. parapsilosis MMX 2323 ATCC 22019; assay: MIC assay (CLSI microdilution); type: cell-based, Candida parapsilosis; conditions: read-out: MIC
# Procedure, shortened: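 Broth microdilution MIC testing of Candida parapsilosis ATCC 22019 followed CLSI methods in RPMI-1640, with or without 0.002% Tween-80. Yeast grown 48 hours at 35° C on Sabouraud dextrose agar was suspended to a 0.5 McFarland standard and diluted 1:100 to roughly 0.5-2.5×10^3 CFU/mL. The MIC was the lowest concentration preventing visible growth.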
# A. flavus MMX 5948 = assay: MIC/MEC assay (CLSI microdilution); type: cell-based; conditions: Aspergillus flavus, MMX5948, 48 h, RPMI plus 0.002% Tween-80
# Procedure, shortened: as §1
# A. fumigatus MMX 5944 = assay: MIC/MEC assay (CLSI microdilution); type: cell-based
# Procedure, shortened: as §1
# [8] = system: A. fumigatus MMX 6781 ATCC MYA-4609; assay: MIC/MEC assay (CLSI microdilution); type: cell-based; conditions: Aspergillus fumigatus
# Procedure, shortened: as §1
# [9] = system: A. fumigatus MMX 6782 ATCC 13073; assay: MIC/MEC assay (CLSI microdilution); type: cell-based
# Procedure, shortened: as §1
# [10] = system: A. fumigatus from Aureogen; assay: MIC/MEC assay (CLSI microdilution); type: cell-based
# Procedure, shortened: as §1
# [11] = system: A. niger MMX 0624 ATCC 16888; assay: MIC/MEC assay (CLSI microdilution); type: cell-based
# Procedure, shortened: as §1
# Coccidiodes immitus = assay: organism not typed; type: cell-based
# [12] = Cryptococcus neoformans, ATCC90112, 72 h, 72 hour, RPMI plus 0.002% Tween-80, read-out: MIC
# [13] = Cryptococcus neoformans, ATCC90112, RPMI plus 0.002% Tween-80, read-out: MIC
# [14] = RPMI plus 0.002% Tween-80, 48 hr
# [15] = Aspergillus fumigatus, 48 h, RPMI plus 0.002% Tween-80, read-out: MIC
smiles,measurement,setting,value
"C[C@@H]1[C@H](O)[C@@H](C)/C=C/C=C/C=C/C=C/C=C/C=C/C=C/[C@H](O[C@@H]2O[C@H](C)[C@@H](O)[C@H](N)[C@@H]2O)C[C@@H]2O[C@](O)(C[C@@H](O)C[C@@H](O)[C@H](O)CC[C@@H](O)C[C@@H](O)CC(=O)O[C@H]1C)C[C@H](O)[C@H]2C(=O)O [Amphotericin B, reference compound]",MIC,[1],≤ 0.06 µg/mL
same,MIC,[2]; [12],≤ 0.06 µg/mL
same,MIC,[2]; [13],≤ 0.06 µg/mL
same,MIC,"[3]; Without Tween-80, 48 hr",0.5 µg/mL
same,MIC,[4],≤ 0.06 µg/mL
same,CLSI QC Range (MIC),[5],(0.25-1)^1 μg/mL
same,CLSI QC Range (MIC),[6],0.5 to 4 µg/mL
same,CLSI QC Range (MIC),[6]; listed as Amph. B,(0.5-4)^1 μg/mL
"CC[C@H](C)[C@@H]1NC(=O)[C@@H]2CCCN2C(=O)[C@H](Cc2cccc(-c3ccc(N4CCN(C(C)C)CC4)cc3)c2)N(C)C(=O)[C@H](Cc2ccccc2)NC(=O)[C@H](C(C)C)N(C)C(=O)[C@@H]([C@@H](C)CC)OC(=O)[C@H](C(C)(C)O)N(C)C(=O)[C@H](CC(C)C)NC(=O)[C@H](C(C)C)N(C)C1=O [Compound 25] (cyclo(F[X1]PI[NMeV]L[NMeVal(β-OH)][Hmp(2R,3S)][NMeV]))",MIC,[1],0.015 µg/mL
same,MIC,"[2]; 72 hour, RPMI plus 0.002% Tween-80",0.06 µg/mL
same,MIC,[2]; [12],0.06 µg/mL
same,MIC,[2]; [13],0.015 µg/mL
same,MIC,"[7]; ATCC22019, RPMI plus 0.002% Tween-80",0.03 µg/mL
same,MIC,"[7]; ATCC22019, Without Tween-80",1 µg/mL
same,minimal effective concentration,A. flavus MMX 5948,0.008 µg/mL
same,minimal effective concentration,"A. fumigatus MMX 5944; Aspergillus fumigatus, MMX5944, 48 h, RPMI plus 0.002% Tween-80",0.015 µg/mL
same,MIC,"A. fumigatus MMX 5944; Aspergillus fumigatus, MMX5944, 48 h, RPMI plus 0.002% Tween-80, read-out: MIC",0.06 µg/mL
same,MIC,A. fumigatus MMX 5944; [14],0.06 µg/mL
same,MIC,"[8]; 48 h, RPMI plus 0.002% Tween-80, read-out: MIC",0.12 µg/mL
same,minimal effective concentration,[8]; [14],0.03 µg/mL
same,minimal effective concentration,"[9]; Aspergillus fumigatus, ATCC13073, 48 h, RPMI plus 0.002% Tween-80, read-out: MEC",0.015 µg/mL
same,MIC,"[9]; Aspergillus fumigatus, ATCC13073, 48 h, RPMI plus 0.002% Tween-80, read-out: MIC",0.06 µg/mL
same,MIC,[9]; [14],0.06 µg/mL
same,minimal effective concentration,"[10]; Aspergillus fumigatus, 48 h, RPMI plus 0.002% Tween-80",0.06 µg/mL
same,MIC,[10]; [15],0.12 µg/mL
same,MEC,[10]; [14],0.06 µg/mL
same,minimal effective concentration,"[11]; Aspergillus niger, ATCC16888, 48 h, RPMI plus 0.002% Tween-80, read-out: MEC",0.015 µg/mL
same,MIC,"[11]; Aspergillus niger, ATCC16888, 48 h, RPMI plus 0.002% Tween-80, read-out: MIC",0.015 µg/mL
same,MIC,[11]; [14],0.015 µg/mL
same,minimal effective concentration,"[3]; Aspergillus fumigatus, 48 h, RPMI plus 0.002% Tween-80, read-out: MEC",0.03 µg/mL
same,MIC,[3]; [15],0.12 µg/mL
same,minimal effective concentration,"[3]; Aspergillus fumigatus, 48 h, Without Tween-80, read-out: MEC",0.5 µg/mL
same,MIC,"[3]; Aspergillus fumigatus, 48 h, Without Tween-80, read-out: MIC",1 µg/mL
same,MEC,"[3]; Without Tween-80, 48 hr",1/1 μg/mL
same,MIC,"[3]; Without Tween-80, 48 hr",1 µg/mL
same,MIC,Coccidiodes immitus,0.15 µg/mL
same,MIC,[4],1 µg/mL
